This note sets out measurements from US20250304582A1, “Bicyclic Ureas As Kinase Inhibitors” (Incyte Corporation, priority 2024, published 2025).

In assay [1] the target is T1, catalytic domain (JH1, amino acids 808-1132) of human JAK2 (Homo sapiens, UniProt O60674).
T1 construct: catalytic domain (JH1, amino acids 808-1132) of human JAK2; His (N); purchased BPS Bioscience 40450; host or cells: baculovirus expression system
The assay is described as follows: JAK2 HTRF Enzyme Activity Assay. The class given is biochemical. As to conditions: ATP (30 μM or 1 mM; not stated which for the table), 60 minutes at 25° C.; read-out: JAK2 HTRF (Ex. D). The procedure, abridged:
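N-terminal His-tagged, baculovirus-expressed JH1 domain (0.015 nM) reacts 60 min at 25 °C with 500 nM biotinylated peptide and 30 μM or 1 mM ATP in Tris pH 7.5/10 mM MgCl2. Phosphorylation is detected by HTRF with Eu-anti-phosphotyrosine (PY20) and streptavidin-APC after EDTA stop. IC50 comes from four-parameter fits.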

Assay [2] concerns the target T2, catalytic domain (JH1, amino acids 826-1132) of human JAK2 (Homo sapiens, UniProt O60674).
T2 construct: catalytic domain (JH1, amino acids 826-1132) of human JAK2; FLAG (N); purchased Carna Biosciences 08-445-20N; host or cells: baculovirus expression system
The assay is described as follows: JAK2 LanthaScreen JH1 Binding Assay. As to conditions: 50 nM fluorescent JAK2-JH1 tracer, 2 hours at 25° C.; read-out: JH1 BIND (EX. A). The gist of the method: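 FLAG-tagged biotinylated JAK2 JH1 (1.5 nM) was incubated 2 h at 25° C with compound, 50 nM fluorescent tracer and 0.5 nM Streptavidin-Tb in Tris pH 7.5 buffer. Tracer displacement read by TR-FRET; nonspecific binding defined with 2 mM ATP. IC50 from four-parameter fit.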

In assay [3] the target is T3, pseudo-kinase domain (JH2, amino-acids 536-812) of human Wild Type JAK2 (Homo sapiens, UniProt O60674, F794H/W659A/W777A).
T3 construct: JH2, amino-acids 536-812 with 3 surface mutations W659A, W777A, F794H; His (C); purchased BPS Bioscience 79463; host or cells: baculovirus expression system
T3 sequence (O60674 536-812 W659A/W777A/F794H): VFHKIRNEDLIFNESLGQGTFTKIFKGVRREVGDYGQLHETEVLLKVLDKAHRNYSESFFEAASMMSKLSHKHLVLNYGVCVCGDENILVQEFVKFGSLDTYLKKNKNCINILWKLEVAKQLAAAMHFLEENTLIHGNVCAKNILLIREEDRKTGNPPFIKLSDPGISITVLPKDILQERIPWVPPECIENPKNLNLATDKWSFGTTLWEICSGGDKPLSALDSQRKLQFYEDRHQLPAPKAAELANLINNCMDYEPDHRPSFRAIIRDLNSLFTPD
Nature of the assay: JAK2 LanthaScreen JH2-WT Binding Assay. As to conditions: 50 nM Fluorescent JAK2-JH2 Tracer, 1 hour at 25° C.; read-out: JH2 BIND WT (EX. B). The gist of the method: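 JH2 domain (0.145 nM; His-Avi-tagged, biotinylated, baculovirus-expressed) incubated 1 h at 25° C. with compounds, 50 nM fluorescent JH2 tracer and 0.25 nM streptavidin-Tb in pH 7.5 Tris buffer with MgCl2, EGTA, DTT. Non-specific binding defined with 2 mM ATP. TR-FRET tracer displacement read; IC50 from four-parameter fit.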

Assay [4] has as its target T4, pseudo-kinase domain (JH2, amino-acids 536-812) of human V617F mutant JAK2 (Homo sapiens, UniProt O60674, F794H/V617F/W659A/W777A).
T4 construct: JH2, amino-acids 536-812 with 3 surface mutations W659A, W777A, F794H; His (C); purchased BPS Bioscience 79498; host or cells: baculovirus expression system
Nature of the assay: JAK2 LanthaScreen JH2-V617F Binding Assay. To be noted: 50 nM Fluorescent JAK2-JH2 Tracer, 1 hour at 25° C.; read-out: JH2 BIND V617F (Ex. C). The gist of the method:
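Biotinylated His-Avi-tagged JH2 construct (536-812, W659A/W777A/F794H) at 0.26 nM, with 50 nM fluorescent JH2 tracer and 0.25 nM streptavidin-Tb, in pH 7.5 Tris/MgCl2 buffer; 1 h at 25° C. Non-specific binding defined with 2 mM ATP. IC50 derived from TR-FRET signal by four-parameter dose-response fit.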

T1 sequence (O60674 808-1132): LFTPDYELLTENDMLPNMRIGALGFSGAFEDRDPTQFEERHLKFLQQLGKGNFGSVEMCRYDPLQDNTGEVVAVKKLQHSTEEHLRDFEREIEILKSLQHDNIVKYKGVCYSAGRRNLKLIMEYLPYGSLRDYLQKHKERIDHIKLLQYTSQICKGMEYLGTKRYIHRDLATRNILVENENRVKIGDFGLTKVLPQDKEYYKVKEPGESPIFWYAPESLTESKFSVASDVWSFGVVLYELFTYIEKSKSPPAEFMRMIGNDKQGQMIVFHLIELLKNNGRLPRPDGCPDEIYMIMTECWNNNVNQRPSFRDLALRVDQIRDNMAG
T2 sequence (O60674 826-1132): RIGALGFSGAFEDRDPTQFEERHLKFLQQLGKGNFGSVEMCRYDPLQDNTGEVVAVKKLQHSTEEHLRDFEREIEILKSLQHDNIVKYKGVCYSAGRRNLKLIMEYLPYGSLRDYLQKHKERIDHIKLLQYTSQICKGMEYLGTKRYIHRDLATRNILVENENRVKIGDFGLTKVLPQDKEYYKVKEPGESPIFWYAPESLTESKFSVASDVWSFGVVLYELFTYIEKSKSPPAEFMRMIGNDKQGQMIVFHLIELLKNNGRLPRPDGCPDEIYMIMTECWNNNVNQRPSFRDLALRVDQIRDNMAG
T4 sequence (O60674 536-812 V617F/W659A/W777A/F794H): as the sequence (O60674 536-812 W659A/W777A/F794H) above, with V82F counted along it

For the compound `COC(=O)N[C@@H]1CC[C@@H](n2c(=O)n(C)c3cnc(Nc4ccc5cccc(C(F)F)c5n4)cc32)C1` [Example 38, Methyl ((1R,3R)-3-(6-((8-(difluoromethyl)quinolin-2-yl)amino)-3-methyl-2-oxo-2,3-dihydro-1H-imidazo[4,5-c]pyridin-1-yl)cyclopentyl)carbamate], the IC50 in assay [1] was greater than 1000 nM; in assay [2] it was greater than 1000 nM; in assay [3] it was no more than 10 nM; in assay [4] it was no more than 10 nM.

With `COC(=O)N[C@@H]1CC[C@@H](n2c(=O)n(C)c3cnc(Nc4ccc5cc(C#N)ccc5n4)cc32)C1` [Example 45, Methyl ((1R,3R)-3-(6-((6-cyanoquinolin-2-yl)amino)-3-methyl-2-oxo-2,3-dihydro-1H-imidazo[4,5-c]pyridin-1-yl)cyclopentyl)carbamate], the IC50 was greater than 1000 nM in assay [1], greater than 1000 nM in assay [2], 10 to 100 nM in assay [3] and 100 to 500 nM in assay [4].

On to `[2H]C([2H])([2H])n1c(=O)n([C@@H]2CC[C@@H](NC(=O)OC)C2)c2cc(Nc3cc(CO)c4cccc(C(F)(F)F)c4n3)ncc21` [Example 1, Methyl ((1R,3R)-3-(6-((4-(hydroxymethyl)-8-(trifluoromethyl)quinolin-2-yl)amino)-3-(methyl-d3)-2-oxo-2,3-dihydro-1H-imidazo[4,5-c]pyridin-1-yl)cyclopentyl)carbamate], for which the IC50 in assay [1] was greater than 1000 nM; in assay [2], greater than 1000 nM; in assay [3], no more than 10 nM; in assay [4], no more than 10 nM.

Consider `COC(=O)N[C@@H]1CC[C@@H](n2c(=O)n(C)c3cnc(Nc4ccc5cccc(C(F)(F)F)c5n4)cc32)C1` [Example 41, Methyl ((1R,3R)-3-(3-methyl-2-oxo-6-((8-(trifluoromethyl)quinolin-2-yl)amino)-2,3-dihydro-1H-imidazo[4,5-c]pyridin-1-yl)cyclopentyl)carbamate], for which the IC50 in assay [1] is greater than 1000 nM; in assay [2], greater than 1000 nM; in assay [3] it was no more than 10 nM; in assay [4] it was no more than 10 nM.

Turning to `[2H]C([2H])([2H])n1c(=O)n([C@@H]2CC[C@@H](NC(=O)OC)C2)c2cc(Nc3cc(C(C)(C)O)c4nccc(C)c4n3)ncc21` [Example 29, Methyl ((1R,3R)-3-(6-((4-(2-hydroxypropan-2-yl)-8-methyl-1,5-naphthyridin-2-yl)amino)-3-(methyl-d3)-2-oxo-2,3-dihydro-1H-imidazo[4,5-c]pyridin-1-yl)cyclopentyl)carbamate], the IC50 in assay [1] is greater than 1000 nM; in assay [2], greater than 1000 nM; in assay [3], no more than 10 nM; in assay [4], no more than 10 nM.

`COC(=O)N[C@@H]1CC[C@@H](n2c(=O)n(C)c3cnc(Nc4cc(Cl)c5cccc(C(F)(F)F)c5n4)cc32)C1` [Example 21, Methyl ((1R,3R)-3-(6-((4-chloro-8-(trifluoromethyl)quinolin-2-yl)amino)-3-methyl-2-oxo-2,3-dihydro-1H-imidazo[4,5-c]pyridin-1-yl)cyclopentyl)carbamate]: the IC50 in assay [1] was greater than 1000 nM; in assay [2], greater than 1000 nM; in assay [3], no more than 10 nM; in assay [4], no more than 10 nM.

For `COC(=O)N[C@H]1CC[C@H](n2c(=O)n(C)c3cnc(Nc4ccc5cccc(Cl)c5n4)cc32)C1` [Example 40, Methyl ((1S,3S)-3-(6-((8-chloroquinolin-2-yl)amino)-3-methyl-2-oxo-2,3-dihydro-1H-imidazo[4,5-c]pyridin-1-yl)cyclopentyl)carbamate], the IC50 was greater than 1000 nM in assay [1], greater than 1000 nM in assay [2], no more than 10 nM in assay [3] and 10 to 100 nM in assay [4].

Turning to `[2H]C([2H])([2H])n1c(=O)n([C@@H]2CC[C@@H](NC(=O)OC)C2)c2cc(Nc3cc([S+](C)[O-])c4cccc(C(F)(F)F)c4n3)ncc21` (stereo partly drawn) [Example 5, Methyl ((1R,3R)-3-(3-(methyl-d3)-6-((4-(methylsulfinyl)-8-(trifluoromethyl)quinolin-2-yl)amino)-2-oxo-2,3-dihydro-1H-imidazo[4,5-c]pyridin-1-yl)cyclopentyl)carbamate], the IC50 in assay [1] is greater than 1000 nM; in assay [2], greater than 1000 nM; in assay [3], no more than 10 nM; in assay [4] it was no more than 10 nM.

`COC(=O)N[C@@H]1CC[C@@H](n2c(=O)n(C)c3cnc(Nc4ccc5ccc(C#N)cc5n4)cc32)C1` [Example 44, Methyl ((1R,3R)-3-(6-((7-cyanoquinolin-2-yl)amino)-3-methyl-2-oxo-2,3-dihydro-1H-imidazo[4,5-c]pyridin-1-yl)cyclopentyl)carbamate]: the IC50 was greater than 1000 nM in assay [1], greater than 1000 nM in assay [2], 100 to 500 nM in assay [3] and 100 to 500 nM in assay [4].

With `[2H]C([2H])([2H])n1c(=O)n([C@@H]2CC[C@@H](NC(=O)OC)C2)c2cc(Nc3cc(S(C)(=N)=O)c4cccc(C(F)(F)F)c4n3)ncc21` (stereo partly drawn) [Example 7, methyl ((1R,3R)-3-(3-(methyl-d3)-6-((4-(S-methylsulfonimidoyl)-8-(trifluoromethyl)quinolin-2-yl)amino)-2-oxo-2,3-dihydro-1H-imidazo[4,5-c]pyridin-1-yl)cyclopentyl)carbamate], the IC50 is greater than 1000 nM in assay [1], greater than 1000 nM in assay [2], no more than 10 nM in assay [3] and 10 to 100 nM in assay [4].

As to `[2H]C([2H])([2H])n1c(=O)n([C@@H]2CC[C@@H](NC(=O)OC)C2)c2cc(Nc3ccc4cccc([N+](=O)[O-])c4n3)ncc21` [Example 35, Methyl ((1R,3R)-3-(3-(methyl-d3)-6-((8-nitroquinolin-2-yl)amino)-2-oxo-2,3-dihydro-1H-imidazo[4,5-c]pyridin-1-yl)cyclopentyl)carbamate], the IC50 in assay [1] was greater than 1000 nM; in assay [2] it was greater than 1000 nM; in assay [3], no more than 10 nM; in assay [4], no more than 10 nM.

As to `[2H]C([2H])([2H])n1c(=O)n([C@@H]2CC[C@@H](NC(=O)OC)C2)c2cc(Nc3ccc4nccc(C#N)c4n3)ncc21` [Example 36, Methyl ((1R,3R)-3-(6-((8-cyano-1,5-naphthyridin-2-yl)amino)-3-(methyl-d3)-2-oxo-2,3-dihydro-1H-imidazo[4,5-c]pyridin-1-yl)cyclopentyl)carbamate], the IC50 is greater than 1000 nM in assay [1], greater than 1000 nM in assay [2], no more than 10 nM in assay [3] and no more than 10 nM in assay [4].

For the compound `[2H]C([2H])([2H])n1c(=O)n([C@H]2C[C@H](NC(=O)OC)C2)c2cc(Nc3cc(C(C)(C)O)c4cccc(C(F)(F)F)c4n3)ncc21` [Example 15, Methyl ((trans)-3-(6-((4-(2-hydroxypropan-2-yl)-8-(trifluoromethyl)quinolin-2-yl)amino)-3-(methyl-d3)-2-oxo-2,3-dihydro-1H-imidazo[4,5-c]pyridin-1-yl)cyclobutyl)carbamate], the IC50 in assay [1] is 100 to 500 nM; in assay [2], 100 to 500 nM; in assay [3] it was no more than 10 nM; in assay [4] it was no more than 10 nM.

With `[2H]C([2H])([2H])n1c(=O)n([C@@H]2CC[C@@H](NC(=O)OC)C2)c2cc(Nc3cc(C(C)(C)OC)c4cccc(C(F)(F)F)c4n3)ncc21` [Example 17, Methyl ((1R,3R)-3-(6-((4-(2-methoxypropan-2-yl)-8-(trifluoromethyl)quinolin-2-yl)amino)-3-(methyl-d3)-2-oxo-2,3-dihydro-1H-imidazo[4,5-c]pyridin-1-yl)cyclopentyl)carbamate], the IC50 was greater than 1000 nM in assay [1], greater than 1000 nM in assay [2], no more than 10 nM in assay [3] and no more than 10 nM in assay [4].

As for `COC(=O)N[C@@H]1CC[C@@H](n2c(=O)n(C)c3cnc(Nc4ccc5cccc(Br)c5n4)cc32)C1` [Example 24, Methyl ((1R,3R)-3-(6-((8-bromoquinolin-2-yl)amino)-3-methyl-2-oxo-2,3-dihydro-1H-imidazo[4,5-c]pyridin-1-yl)cyclopentyl)carbamate], the IC50 in assay [1] was greater than 1000 nM; in assay [2] it was greater than 1000 nM; in assay [3], no more than 10 nM; in assay [4], no more than 10 nM.
